Test results: patent publication US11103526B2, “Methods for treatment using small molecule potassium-sparing diuretics and natriuretics” (University of Pittsburgh—Of the Commonwealth System of …, priority 2016, dated 2021)

Experiments:
anesthetized rats = assay: Protocol 3: intrarenal artery infusion, ipsilateral versus contralateral kidney (Example 13); type: in vivo, male Sprague-Dawley rats; settings: for MABP / renal blood flow (RBF) / urinary excretion of glucose, ipsilateral versus contralateral kidney / urinary excretion of potassium, ipsilateral versus contralateral kidney / urinary excretion of sodium, ipsilateral versus contralateral kidney / urine volume, ipsilateral versus contralateral kidney: intrarenal artery infusion 0.1, 0.3 and 1 μmoles/kg/min; for urinary excretion of glucose, ipsilateral versus contralateral kidney / urinary excretion of potassium, ipsilateral versus contralateral kidney / urinary excretion of sodium, ipsilateral versus contralateral kidney / urine volume, ipsilateral versus contralateral kidney: same time period
Protocol: Protocol 3. Rats were prepared similar to the Protocol 1 description, but with a few additions. For this protocol, PE-10 cannulas were inserted into both the left and right ureters for simultaneous urine collection from both kidneys. A 1 mm transit-time flow probe was also positioned on the left renal artery and connected to a flowmeter (model T-206, Transonic Systems, Inc., Ithaca, N.Y.) to continuously measure renal blood flow (RBF). As placing a flow probe on left renal artery partially denervates the kidney, both kidneys were denervated to ensure similar conditions for both kidneys. Finally, a 30-gauge needle was inserted into the lumen of the left renal artery, and an infusion of 0.9% saline at 50 μl/min was initiated.
After stabilization for one hour, urine was collected from both kidneys for 15 minutes (for urine volume, sodium, potassium, and glucose), and MABP as well as HR were time averaged during this period. In addition, RBF was recorded 5, 10, and 15 minutes into the 15-minute urine collection period and averaged. Next, the rats received an infusion into the left renal artery of 8-aminoguanine or 8-aminoguanosine at 0.1 μmoles/kg/min and 50 μl/min or of vehicle at 50 μl/min. After 10 minutes, urine was again collected for 15 minutes, and all measurements were repeated. In rats receiving 8-aminoguanine or 8-aminoguanosine, the dose of these compounds was increased to 0.3 μmoles/kg/min. After 10 minutes, urine was again collected for 15 minutes, and all measurements were repeated. The procedure was repeated once more after the dose of 8-aminoguanosine or 8-aminoguanine was increased to 1 μmole/kg/min. Sodium, potassium, and glucose were measured in all urine samples as described in Protocol 1.
Increasing doses (0, 0.1, 0.3, and 1.0 μmoles/kg/min) of 8-aminoguanosine and 8-aminoguanine were infused into the left renal artery of anesthetized rats, while MABP and RBF were monitored. The urine volume and urinary excretion of sodium, potassium, and glucose were also measured from both the infused (treated; ipsilateral) and non-infused (within animal control; contralateral) kidneys. A control group was also included with the vehicle alone infused into the left kidney.

[1] = Protocol 2: renal microdialysate and urine levels after intravenous bolus (Example 12); settings: after 33.5 μmoles/kg intravenous bolus
Protocol: Rats were prepared in a similar fashion to that described in Protocol 1, but with modifications. Specifically, microdialysis probes were inserted into the cortex and medulla of the right kidney and were perfused at 2 μl/min with 0.9% saline. The microdialysis probes used in this protocol were from Bioanalytical Systems (West Lafayette, Ind.; CMA/20 microdialysis probe 4 mm; outer diameter of 0.5 mm; 20,000 dalton membrane cut-off). After initiating the probe perfusions, the infusion rate of 0.9% saline via the jugular vein was reduced to 25 μl/min to avoid volume overload. The rats then stabilized for two hours for the kidney to recover from the trauma induced by the probe insertions.
Next, microdialysate from the renal cortex and medulla as well as urine were collected for 30 minutes, and MABP and HR were time averaged during this first (basal) period. Rats were then randomized to receive 8-aminoguanosine, 8-aminoguanine, or vehicle using the dose and manner described for Protocol 1. Ten minutes after the treatments, microdialysate from the renal cortex and medulla as well as urine were again collected for 30 minutes, and MABP and HR were time averaged during this treatment period. After 15 minutes, this procedure was repeated. 8-Aminoguanosine and 8-aminoguanine were measured in urine and microdialysate using ultra-performance liquid chromatography-tandem mass spectrometry (LC-MS/MS) as described below.
Assay for 8-Aminoguanosine and 8-Aminoguanine. The purines in the urine and microdialysate were measured by LC-MS/MS using a method similar to a previously described method (Jackson et al., J Biol Chem 284:33097-33106, 2009), but with modifications. Purines were separated using reversed-phase ultra-performance liquid chromatography (Waters UPLC BEH C18 column, 1.7 μm beads; 2.1×150 mm; Milford, Mass.) and quantified by selected reaction monitoring using a triple quadrupole mass spectrometer (TSQ Quantum-Ultra; ThermoFisher Scientific, San Jose, Calif.) with a heated electrospray ionization source. The mobile phase included a linear gradient flow rate (300 uL/min) of 1% acetic acid in water (pH, 3; mobile phase A) as well as 100% methanol (mobile phase B) and was delivered with a Waters Acquity ultra-performance liquid chromatographic system. […]
Microdialysis probes were inserted into the renal cortex and medulla of anesthetized rats; the rats stabilized for 2 hours and were then administered an intravenous bolus of vehicle (control group), 8-aminoguanosine (33.5 μmoles/kg), or 8-aminoguanine (33.5 μmoles/kg). The levels of these compounds were then measured in the renal cortex and medulla as well as in the urine using LC-MS/MS.

[2] = tested on: RBCs from SCD patients (HbSS); assay: Hypoxia-induced sickling of RBCs from SCD patients; type: cell-based, human
Protocol: In addition to causing PH in SCD patients and HIV-infected patients, the contribution of PNPase to RBC sickling in SCD patients was assessed. Fresh RBCs were obtained from two adult SCD patients (HbSS); the RBCs were diluted in F-10 HAM buffer to a final hematocrit of 4%. Next, glucose was added for a final concentration of 5.5 mmol/L, and the samples were incubated at room air/temperature in 12-well plates. The RBCs were then treated with either vehicle, 8-aminoguanosine (2 μmol/L), inosine (2 μmol/L), or an 8-aminoguanosine and inosine combination. After 1.5 hours, the RBCs were placed in a hypoxic glove box and maintained under hypoxia (5% 02) for 3 hours, while undergoing mild agitation. At the end of incubation, to prevent reoxygenation-derived morphological changes, the RBCs were fixed under hypoxic conditions in the hypoxic glove box. The samples were assayed for percent sickling.

[3] = tested on: Sugen 5416+hypoxia-induced PH; assay: Sugen 5416+hypoxia-induced angioproliferative pulmonary hypertension; type: in vivo, female Sprague Dawley rats; settings: 30 mg/kg/day in drinking water
Source text: A total of 36 female Sprague Dawley rats were used to determine whether administration of the PNPase inhibitor 8-aminoguanosine attenuates development of angioproliferative PH in animals with Sugene5416+hypoxia-induced PH. The animals were randomly assigned to receive subcutaneous injection of vehicle [(control group; n=8; 0.5% (w/v) carboxymethylcellulose sodium, 0.9% (w/v) sodium chloride, 0.4% (v/v) polysorbate 80, and 0.9% (v/v) benzyl alcohol in deionized water] or subcutaneous injection of SU5416 20 mg/kg (n=16; SU+Hx group). A subset of the SU5416-treated animals received 8-aminoguanosine (30 mg/kg/day in drinking water (n=12; 8-amino-guanosine group). On day 0, all SU5416-treated animals (SU+Hx and 8-aminoguanosine groups) were exposed to chronic hypoxia for 3 weeks. The animals were placed into normobaric plexiglas chambers (BioSpherix, Redfield, N.J., USA). The chambers were continuously flushed with nitrogen to maintain 10% oxygen and low CO2 concentrations (<0.5%) with the O2 and CO2 concentrations continuously monitored (PROOX110, BioSpherix oxygen controller and LB-2 CO2 analyzer, Sensormedics). At day 21, the animals were returned to a normoxic environment. Three weeks later (day 42), the animals were anesthetized and instrumented for RVPSP measurements. A PE-240 polyethylene catheter was inserted into the trachea to facilitate breathing, and the SPR-513 catheter (Millar Instruments) was inserted into right jugular vein and advanced into RV for RVPSP measurements. After 20-30-minutes of stabilization, RVPSP was recorded over 20 minutes. The animals were euthanized by anesthetic overdose, and the heart and lungs were collected for morphometric analyses.

## Nc1nc2[nH]c(N)nc2c(=O)[nH]1 [8-aminoguanine, 8-Aminoguanine]
Anesthetized rats
  MABP: did not affect
  renal blood flow (RBF): did not affect
  urinary excretion of glucose, ipsilateral versus contralateral kidney: significantly higher
  urinary excretion of potassium, ipsilateral versus contralateral kidney: did not differ significantly
  urinary excretion of sodium, ipsilateral versus contralateral kidney: significantly higher
  urine volume, ipsilateral versus contralateral kidney: significantly higher
Anesthetized rats; intrarenal artery infusion at 1 μmole/kg/min, compared with the basal level
  urine, sodium, and glucose excretion by the contralateral kidney: slightly increased
Anesthetized rats; intrarenal artery infusion at 0.1 and 0.3 μmoles/kg/min
  excretion of urine, sodium, or glucose by the contralateral kidney: no effect
[1]; microdialysate
  interstitial levels of 8-aminoguanine in the renal cortex: immediate, sustained, similar, and large increases
  interstitial levels of 8-aminoguanine in the renal medulla: immediate, sustained, similar, and large increases
[1]; urine
  urinary levels of 8-aminoguanine: immediate, sustained, similar, and large increases
  urinary levels of 8-aminoguanosine: did not affect

## Nc1nc2c(nc(N)n2[C@@H]2O[C@H](CO)[C@@H](O)[C@H]2O)c(=O)[nH]1 [8-aminoguanosine, 8-Aminoguanosine]
Anesthetized rats
  MABP: did not affect
  renal blood flow (RBF): did not affect
  urinary excretion of glucose, ipsilateral versus contralateral kidney: no significant differences
  urinary excretion of potassium, ipsilateral versus contralateral kidney: significantly lower
  urinary excretion of sodium, ipsilateral versus contralateral kidney: no significant differences
  urine volume, ipsilateral versus contralateral kidney: no significant differences
[2]; 2 μmol/L, 1.5 hours pre-incubation, then hypoxia for 3 hours
  hypoxia-induced sickling of RBCs: significantly reduced
[2]; 8-aminoguanosine (2 μmol/L) combined with inosine (2 μmol/L)
  effect on the inhibitory effects of inosine on hypoxia-induced sickling: potentiated
[3]; day 42
  Fulton index: decreased
  RV contractility: improved
  RV end diastolic pressure (RV EDP): decreased
  right ventricular peak systolic pressure (RVPSP): significantly reduced
[3]; histopathology
  grade 6 necrotizing arteritis lesions: prevented sporadic occurrence
  occlusive vascular lesions: reduced the number
  plexiform vascular lesions: reduced the number
